Measured values from patent publication US6358885B1, “Substituted phenylheterocyclic herbicides” (Mississippi State University, priority 1992, dated 2002).

Assays:
[1] = tested on: speedwell; experiment: Test C preemergence/postemergence greenhouse plant response rating 0 to 100; type: in vivo, Veronica persica; settings: for Plant response rating Speedwell: 0 to 100 scale
Excerpt: The compounds evaluated in this test were formulated in a non-phytoxic solvent and applied to the soil surface before plant seedlings emerged (preemergence application), to water that covered the soil surface (flood application), and to plants that were in the one-to-four leaf stage (postemergence application). A sandy loam soil was used for the preemergence and postemergence tests, while a silt loam soil was used in the flood test. Water depth was approximately 2.5 cm for the flood test and was maintained at this level for the duration of the test. Plant species in the preemergence and postemergence tests consisted of barley (Hordeum vulgare), bedstraw (Galium aparine), blackgrass (Alopecurus myosuroides), chickweed (Stellaria media), corn (Zea mays), cotton (Gossypium hirsutum), crabgrass (Digitaria sanguinalis), downy brome (Bromus tectorum), giant foxtail (Setaria faberii), lambsquarters (Chenopodium album), morningglory (Ipomoea hederacea), pigweed ([…]), rape (Brassica napus), ryegrass (Lolium multiflorum), sorghum (Sorghum bicolor), soybean (Glycine max), speedwell (Veronica persica), sugar beet (Beta vulgaris), velvetleaf (Abutilon theophrasti), wheat (Triticum aestivum), wild buckwheat (Polygonum convolvulus), and wild oat (Avena fatua). All plant species were planted one day before application of the compound for the preemergence portion-of this test. Plantings of these species were adjusted to produce plants of appropriate size for the post-emergence portion of the test. […] All plant species were grown using normal greenhouse practices. Visual evaluations of injury expressed on treated plants, when compared to untreated controls, were recorded approximately fourteen to twenty one days after application of the test compound. […] A dash (-) response means no test result.

[2] = tested on: alfalfa; experiment: Test G preemergence/postemergence greenhouse plant response rating 0 to 100; type: in vivo, Medicago ativa; settings: 0 to 100 scale
Procedure, shortened: (§1)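 Pre- and postemergence treatments used compound in non-phytotoxic solvent on potted greenhouse plants grown from seed, rhizome or plant part. Postemergence plants were at the 2–4 leaf stage; damage was assessed by eye versus untreated pots after 13–21 days.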

[3] = tested on: annual bluegrass; experiment: as above; type: in vivo, Poa annua; settings: 0 to 100 scale
Procedure, shortened: as §1

[4] = tested on: bermudagrass; experiment: as above; type: in vivo, Cynodon dactylon; settings: 0 to 100 scale
Procedure, shortened: as §1

[5] = tested on: broadleaf signalgrass; experiment: as above; type: in vivo, Brachiaria plantaginea; settings: 0 to 100 scale
Procedure, shortened: as §1

[6] = tested on: common purslane; experiment: as above; type: in vivo, Portulaca oleracea; settings: 0 to 100 scale
Procedure, shortened: as §1

[7] = tested on: common ragweed; experiment: as above; type: in vivo, Ambrosia elatior; settings: 0 to 100 scale
Procedure, shortened: as §1

[8] = tested on: dallisgrass; experiment: as above; type: in vivo, Paspalum dilatatum; settings: 0 to 100 scale
Procedure, shortened: as §1

[9] = tested on: goosegrass; experiment: as above; type: in vivo, Eleusine indica; settings: 0 to 100 scale
Procedure, shortened: as §1

[10] = tested on: guineagrass; experiment: as above; type: in vivo, Panicum maximum; settings: 0 to 100 scale
Procedure, shortened: as §1

[11] = tested on: itchgrass; experiment: as above; type: in vivo, Rottboellia exaltata; settings: 0 to 100 scale
Procedure, shortened: as §1

[12] = tested on: johnsongrass; experiment: as above; type: in vivo, Sorghum halepense; settings: 0 to 100 scale
Procedure, shortened: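 Greenhouse pots, one species each; non-phytotoxic solvent vehicle. Read-out: visual injury vs untreated, 13–21 DAT. Dash denotes no result.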

[13] = tested on: large crabgrass; experiment: as above; type: in vivo, Digitaria sanguinalis; settings: 0 to 100 scale
Procedure, shortened: as §1

[14] = tested on: peanut; experiment: as above; type: in vivo, Arachis hypoagaea; settings: 0 to 100 scale
Procedure, shortened: as §1

[15] = tested on: pitted morningglory; experiment: as above; type: in vivo, Ipomoea lacunosa; settings: 0 to 100 scale
Procedure, shortened: as §1

[16] = tested on: purple nutsedge; experiment: as above; type: in vivo, Cyperus rotundus; settings: Rate 125 g/ha, 0 to 100 scale
Procedure, shortened: as §1

[17] = tested on: sandbur; experiment: as above; type: in vivo, Cenchrus echinatus; settings: 0 to 100 scale
Procedure, shortened: as §1

[18] = tested on: yellow nutsedge; experiment: as above; type: in vivo, Cyperus esculentus; settings: Rate 125 g/ha, 0 to 100 scale
Procedure, shortened: as §1

C#CCOc1cc(-c2nn3c(c2Br)CCCC3)c(F)cc1Cl [Compound 26]
Plant response rating Speedwell ([1]; POSTEMERGENCE, 62 g/ha): 100
Plant response rating Speedwell ([1]; POSTEMERGENCE, 250 g/ha): 100
Plant response rating (0 to 100), Speedwell ([1]; POSTEMERGENCE, Rate 4 g/ha): 90
Plant response rating Speedwell ([1]; PREEMERGENCE, 250 g/ha): 100
Plant response rating (0 to 100), Speedwell ([1]; PREEMERGENCE, Rate 4 g/ha): 90
Plant response rating (0 to 100), Speedwell ([1]; Rate 16 g/ha, POSTEMERGENCE): 100
Plant response rating (0 to 100), Speedwell ([1]; Rate 16 g/ha, PREEMERGENCE): 100
Plant response rating, Alfalfa Var. ([2]; POSTEMERGENCE, Rate 125 g/ha): 20
Plant response rating, Alfalfa Var. ([2]; POSTEMERGENCE, Rate 250 g/ha): 50
Plant response rating, Alfalfa Var. ([2]; PREEMERGENCE, Rate 125 g/ha): 0
Plant response rating, Alfalfa Var. ([2]; PREEMERGENCE, Rate 250 g/ha): 60
Plant response rating, Ann Bluegrass ([3]; POSTEMERGENCE, Rate 125 g/ha): 0
Plant response rating, Ann Bluegrass ([3]; POSTEMERGENCE, Rate 250 g/ha): 0
Plant response rating, Ann Bluegrass ([3]; PREEMERGENCE, Rate 125 g/ha): 0
Plant response rating, Ann Bluegrass ([3]; PREEMERGENCE, Rate 250 g/ha): 0
Plant response rating, Bermudagrass ([4]; POSTEMERGENCE, Rate 125 g/ha): 0
Plant response rating, Bermudagrass ([4]; POSTEMERGENCE, Rate 250 g/ha): 0
Plant response rating, Bermudagrass ([4]; PREEMERGENCE, Rate 125 g/ha): 0
Plant response rating, Bermudagrass ([4]; PREEMERGENCE, Rate 250 g/ha): 0
Plant response rating, Brdlf Sgnlgrass ([5]; POSTEMERGENCE, Rate 125 g/ha): 0
Plant response rating, Brdlf Sgnlgrass ([5]; POSTEMERGENCE, Rate 250 g/ha): 0
Plant response rating, Brdlf Sgnlgrass ([5]; PREEMERGENCE, Rate 125 g/ha): 0
Plant response rating, Brdlf Sgnlgrass ([5]; PREEMERGENCE, Rate 250 g/ha): 0
Plant response rating, Cmn Purslane ([6]; POSTEMERGENCE, Rate 125 g/ha): 100
Plant response rating, Cmn Purslane ([6]; POSTEMERGENCE, Rate 250 g/ha): 90
Plant response rating, Cmn Purslane ([6]; PREEMERGENCE, Rate 125 g/ha): 30
Plant response rating, Cmn Purslane ([6]; PREEMERGENCE, Rate 250 g/ha): 100
Plant response rating, Cmn Ragweed ([7]; POSTEMERGENCE, Rate 125 g/ha): 80
Plant response rating, Cmn Ragweed ([7]; POSTEMERGENCE, Rate 250 g/ha): 100
Plant response rating, Cmn Ragweed ([7]; PREEMERGENCE, Rate 125 g/ha): 0
Plant response rating, Cmn Ragweed ([7]; PREEMERGENCE, Rate 250 g/ha): 20
Plant response rating, Dallisgrass ([8]; POSTEMERGENCE, Rate 125 g/ha): 0
Plant response rating, Dallisgrass ([8]; POSTEMERGENCE, Rate 250 g/ha): 0
Plant response rating, Dallisgrass ([8]; PREEMERGENCE, Rate 125 g/ha): 20
Plant response rating, Dallisgrass ([8]; PREEMERGENCE, Rate 250 g/ha): 20
Plant response rating, Goosegrass ([9]; POSTEMERGENCE, Rate 125 g/ha): 0
Plant response rating, Goosegrass ([9]; POSTEMERGENCE, Rate 250 g/ha): 0
Plant response rating, Goosegrass ([9]; PREEMERGENCE, Rate 125 g/ha): 70
Plant response rating, Goosegrass ([9]; PREEMERGENCE, Rate 250 g/ha): 20
Plant response rating, Guineagrass ([10]; POSTEMERGENCE, Rate 125 g/ha): 0
Plant response rating, Guineagrass ([10]; POSTEMERGENCE, Rate 250 g/ha): 0
Plant response rating, Guineagrass ([10]; PREEMERGENCE, Rate 125 g/ha): 0
Plant response rating, Guineagrass ([10]; PREEMERGENCE, Rate 250 g/ha): 30
Plant response rating, Itchgrass ([11]; POSTEMERGENCE, Rate 125 g/ha): 0
Plant response rating, Itchgrass ([11]; POSTEMERGENCE, Rate 250 g/ha): 0
Plant response rating, Itchgrass ([11]; PREEMERGENCE, Rate 125 g/ha): 0
Plant response rating, Itchgrass ([11]; PREEMERGENCE, Rate 250 g/ha): 50
Plant response rating, Johnsongrass ([12]; POSTEMERGENCE, Rate 125 g/ha): 0
Plant response rating, Johnsongrass ([12]; POSTEMERGENCE, Rate 250 g/ha): 0
Plant response rating, Johnsongrass ([12]; PREEMERGENCE, Rate 125 g/ha): 0
Plant response rating, Johnsongrass ([12]; PREEMERGENCE, Rate 250 g/ha): 0
Plant response rating, Large Crabgrass ([13]; POSTEMERGENCE, Rate 125 g/ha): 0
Plant response rating, Large Crabgrass ([13]; POSTEMERGENCE, Rate 250 g/ha): 0
Plant response rating, Large Crabgrass ([13]; PREEMERGENCE, Rate 125 g/ha): 90
Plant response rating, Large Crabgrass ([13]; PREEMERGENCE, Rate 250 g/ha): 90
Plant response rating, Peanuts ([14]; POSTEMERGENCE, Rate 125 g/ha): 0
Plant response rating, Peanuts ([14]; POSTEMERGENCE, Rate 250 g/ha): 0
Plant response rating, Peanuts ([14]; PREEMERGENCE, Rate 250 g/ha): 0
Plant response rating, Pit Morninglory ([15]; POSTEMERGENCE, Rate 125 g/ha): 0
Plant response rating, Pit Morninglory ([15]; POSTEMERGENCE, Rate 250 g/ha): 40
Plant response rating, Pit Morninglory ([15]; PREEMERGENCE, Rate 125 g/ha): 0
Plant response rating, Pit Morninglory ([15]; PREEMERGENCE, Rate 250 g/ha): 20
Plant response rating, Purple Nutsedge ([16]; POSTEMERGENCE): 0
Plant response rating, Purple Nutsedge ([16]; PREEMERGENCE): 0
Plant response rating, S. Sandbur ([17]; POSTEMERGENCE, Rate 125 g/ha): 0
Plant response rating, S. Sandbur ([17]; POSTEMERGENCE, Rate 250 g/ha): 0
Plant response rating, S. Sandbur ([17]; PREEMERGENCE, Rate 125 g/ha): 0
Plant response rating, S. Sandbur ([17]; PREEMERGENCE, Rate 250 g/ha): 0
Plant response rating, Yellow Nutsedge ([18]; POSTEMERGENCE): 0
Plant response rating, Yellow Nutsedge ([18]; PREEMERGENCE): 0
